Test results as given in PubChem BioAssay AID2060611 (Molecular Pharmacology Branch, DTP, NCI, 2025).
pIC50: −log10 of the molar value.

System: 628569-122-R-J1-PDC complex spheroid viability
Assay: Anticancer human tumor 628569-122-R-J1-PDC patient-derived head and neck squamous carcinoma cell line growth inhibition [CLK]
Settings: for pIC50: curve of first compound; for viability, T/C: stronger effect = lower value; active = viability on the fitted dose curve at most 10% of control; inactive = the rest
Outline: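 Patient-derived tumor cells grown as complex spheroids with HUVEC endothelial cells and mesenchymal stem cells, treated with drug combinations. Concentrations descend in half-log steps from near clinical Cmax, or from 10 microM if Cmax unknown.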
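Note: spheroids exposed to agents for seven days before readout.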
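Throughout, for viability, T/C: 100% = DMSO vehicle control viability.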

C=CC(=O)Nc1cc(Nc2nccc(-c3cn(C)c4ccccc34)n2)c(OC)cc1N(C)CCN(C)C + CNC(=O)c1ccc(Nc2nc(OC3CCCC3)c3c(-c4ccc5nc(C)oc5c4)c[nH]c3n2)c(OC)c1
> 9.02: pIC50 (second compound 1 µM) | pIC50 (second compound 3.16 µM) | pIC50 (second compound 10 µM)
7.75: pIC50 (second compound 0.316 µM)
7.57: pIC50 (second compound 0.1 µM)
< 6.52: pIC50 (second compound 0.0316 µM)
inactive: viability, T/C (second compound 0.0316 µM, first compound 0.000949 µM) 81.8% | viability, T/C (second compound 0.0316 µM, first compound 0.003 µM) 98.1% | viability, T/C (second compound 0.0316 µM, first compound 0.00949 µM) 86.1% | viability, T/C (second compound 0.0316 µM, first compound 0.03 µM) 84.2% | viability, T/C (second compound 0.0316 µM, first compound 0.0949 µM) 68.1% | viability, T/C (second compound 0.0316 µM, first compound 0.3 µM) 53.7% | viability, T/C (second compound 0.1 µM, first compound 0.000949 µM) 63% | viability, T/C (second compound 0.1 µM, first compound 0.003 µM) 56.2% | viability, T/C (second compound 0.1 µM, first compound 0.00949 µM) 52.4% | viability, T/C (second compound 0.1 µM, first compound 0.03 µM) 49% | viability, T/C (second compound 0.1 µM, first compound 0.0949 µM) 49.6% | viability, T/C (second compound 0.1 µM, first compound 0.3 µM) 37.6% | viability, T/C (second compound 0.316 µM, first compound 0.000949 µM) 50.7% | viability, T/C (second compound 0.316 µM, first compound 0.003 µM) 55.7% | viability, T/C (second compound 0.316 µM, first compound 0.00949 µM) 49% | viability, T/C (second compound 0.316 µM, first compound 0.03 µM) 49.5% | viability, T/C (second compound 0.316 µM, first compound 0.0949 µM) 41.5% | viability, T/C (second compound 0.316 µM, first compound 0.3 µM) 23.9% | viability, T/C (second compound 1 µM, first compound 0.000949 µM) 49.1% | viability, T/C (second compound 1 µM, first compound 0.003 µM) 51.4% | viability, T/C (second compound 1 µM, first compound 0.00949 µM) 38.8% | viability, T/C (second compound 1 µM, first compound 0.03 µM) 42.1% | viability, T/C (second compound 1 µM, first compound 0.0949 µM) 36.6% | viability, T/C (second compound 1 µM, first compound 0.3 µM) 18.9% | viability, T/C (second compound 3.16 µM, first compound 0.000949 µM) 43.1% | viability, T/C (second compound 3.16 µM, first compound 0.003 µM) 48.9% | viability, T/C (second compound 3.16 µM, first compound 0.00949 µM) 39.3% | viability, T/C (second compound 3.16 µM, first compound 0.03 µM) 44.2% | viability, T/C (second compound 3.16 µM, first compound 0.0949 µM) 23.7% | viability, T/C (second compound 3.16 µM, first compound 0.3 µM) 13.7% | viability, T/C (second compound 10 µM, first compound 0.000949 µM) 46.5% | viability, T/C (second compound 10 µM, first compound 0.003 µM) 40.6% | viability, T/C (second compound 10 µM, first compound 0.00949 µM) 46.8% | viability, T/C (second compound 10 µM, first compound 0.03 µM) 45% | viability, T/C (second compound 10 µM, first compound 0.0949 µM) 25.8% | viability, T/C (second compound 10 µM, first compound 0.3 µM) 12%
